{
  "source": "paper PMC8400257",
  "about": "“2-Phenoxy-3-Trichloromethylquinoxalines Are Antiplasmodial Derivatives with Activity against the Apicoplast of Plasmodium falciparum” (Pharmaceuticals, 2021)",
  "key": {"[1]": {"tested_on": "quiescent ART-resistant F32-ART5 parasites", "assay": "Quiescent-stage survival assay (QSA)", "format": "cell-based, Plasmodium falciparum", "conditions": "F32-ART5, DHA 700 nM 6 h then DHA + 3i 2.5 or 5 µM 48 h", "method": "Chemosensitivity evaluation of ART-resistant parasites at the quiescent stage was performed on the strain F32-ART5 thanks to the quiescent-stage survival assay (QSA). D-sorbitol synchronized ring-stages parasites at 3% parasitemia (2% hematocrit) were first exposed to 700 nM of dihydroartemisinin (DHA) for 6 h to induce quiescence of artemisinin-resistant parasites. Then, quiescent parasites were exposed or not (as control condition) to the drug to be tested for 48 h. After drug exposure, parasite cultures were washed with RPMI-1640 medium and replaced in normal drug-free culture conditions. The time to parasite recrudescence was determined as the time required to reach the 3% initial parasitemia. […] In each experiment, results obtained with the condition “DHA 6 h/DHA 48 h” were compared to those obtained with the condition “DHA 6 h/(DHA + drug to be tested) 48 h” in order to determine the delay in recrudescence time. […]\n(§1) 3. Studying the effect of (3i) on the liver stage development of P. falciparum Cryopreserved primary human hepatocytes were seeded in 96 well plates with a pre-determined seeding dose that gave a single dense layer of attached hepatocytes. […]\n(§2) The culture medium with or without drugs was refreshed every 48 hours and two independent plates were studied. […] Plates were subjected to quantification using an automated plate scanner. […]"}, "[2]": {"tested_on": "S. typhimurium strains (TA97a, TA98, TA100, TA102)", "assay": "Ames test", "format": "cell-based, Salmonella typhimurium", "conditions": "48 h; 5 mM and 25 mM, w/o and w/ S9 mix; four S. typhimurium strains", "method": "Nevertheless, the evaluation of the mutagenicity of compound (3i) was carried out using the Ames test on four S. typhimurium strains at 5 mM and 25 mM (four doses per concentrations: 2, 3, 4, 5 µL/plate for assay without S9 mix and 4, 6, 8, 10 µL/plate for assay with S9 mix).\nCompounds were assessed for mutagenicity by a modified version of the liquid incubation assay of the classical Ames test at five concentrations (25–125 nM). Salmonella tester strains (TA97a: Acridine ICR191, TA98: 2,4,7 trinitrofluorenone, TA100: Sodium Azide and TA102: Mitomycine C) as positive control w/o S9 mix and benzo[alpha]pyrene as positive control w/S9 mix) were grown overnight in a nutrient broth n_2 (Oxoid, Dardilly, France). After this period, products dissolved in DMSO (Sigma) were added to 0.1 mL of culture and incubated for 1 h at 37 °C with shaking. Each sample was assayed in duplicate. After incubation, 2 mL of molten top agar were mixed gently with the pre-incubated solution and poured onto Vogel–Bonner minimal agar plates. After 48 h at 37 °C, the number of spontaneous and drug-induced revertants per plate was determined for each dose with a laser bacterial colony counter (laser bacterial colony counter 500A, Interscience). A product was considered mutagenic when it induced a two-fold increase in the number of revertants, compared with the spontaneous frequency (negative control). […]"}, "[3]": {"tested_on": "F32-ART5 and F32-TEM parasites", "assay": "Recrudescence assay", "format": "cell-based, Plasmodium falciparum", "conditions": "48 h exposure; 2.5 µM 3i or 18 µM ART; log-rank Mantel-Cox test", "method": "Recrudescence assay was performed to evaluate the ability of the F32-ART5 parasites to survive drug exposure comparatively to the F32-TEM parasites. D-sorbitol synchronized ring-stages at 3% parasitemia (2% hematocrit) were exposed to drug for 48 h. After drug exposure, parasite cultures were washed with RPMI-1640 medium and replaced in normal drug-free culture conditions. The time to parasite recrudescence was determined as the time required to reach the 3% initial parasitemia. […] Each experiment was performed for F32-ART5 and F32-TEM and cultivated in parallel in the same conditions to generate paired results. This was carried out at least three times independently. A statistical analysis (log-rank Mantel–Cox test) was carried out on data thanks to a Kaplan–Meier survival analysis (using GraphPad Prism software) considering censored data.\nFigure S48. 13C NMR spectrum of 2i in CDCl3, on a Bruker ARX 101 spectrometer\n2. […]\nas §1, §2"}},
  "note": "“Also recorded” adds a separate entry of the source.",
  "data": [
    {"smiles": "O=[N+]([O-])c1ccc(Oc2nc3ccccc3nc2C(Cl)(Cl)Cl)cc1", "note": "[3i, 2-(4-Nitrophenoxy)-3-trichloromethylquinoxaline]", "values": [
      {"measurement": "Activity on quiescent ART-resistant parasites (delay in recrudescence time, QSA)", "setting": "[1]", "value": "did not present any activity"},
      {"measurement": "Ames test result (mutagenicity)", "setting": "[2]", "value": "not genotoxic; also recorded: not mutagenic in vitro; also recorded: negative"},
      {"measurement": "Recrudescence of F32-ART5 compared with F32-TEM after drug exposure", "setting": "[3]", "value": "faster recrudescence"}
    ]}
  ]
}
